# Non-standard residues stand in square brackets, D forms with d. No end group written: not given here. *: point of attachment. FITC = O=C1OC2(c3ccc(O)cc3Oc3cc(O)ccc32)c2ccc(NC(=S)*)cc21; pY = N[C@@H](Cc1ccc(OP(=O)(O)O)cc1)C(=O)O
# How the values were obtained:
# human T cells = assay: Intracellular IFN-γ and TNF-α production by primary human T cells from PBMCs (flow cytometry); assay type: cell-based; settings: anti-CD3/anti-CD28 with Brefeldin A, 6 hours; vs vehicle alone
# Experimental: ITK deficiency is known to enhance the development of regulatory T cells (Tregs) (Elmore et al., 2020, Owen et al., 2019) so the peptide inhibitor was tested to determine whether inhibition of the ITK: SLP76Y145 interactions using SLP76pTYR would induce Tregs. First, the frequency of Tregs was examined by expression of CD4^+ and FoxP3^+ (FIG. 18A). Next, total mouse T cells were stimulated with anti-CD3 (Sugie et al., 2004) in the presence of either SLP76pTYR, nonspecific peptide, or vehicle alone for 5 to 24 hours, and cells were harvested and examined for the presence of Tregs (CD4^+CD25^+FoxP3^+). […] Next, the effects of SLP76pTYR peptide on human PBMC samples from healthy human patients was investigated. T cells from these patients were stimulated with anti-CD3 (OKT3) (Karimi et al., 2005) for 5 minutes in the presence of SLP76pTYR or vehicle alone. […]
# More specifically, FIGS. 18A-18F depict Novel peptide SLP76pTYR specifically targets SLP76: ITK signaling and enhances Treg cell development. […] (FIG. 18C) Quantification of three experiments as in (A) (FIG. 18D) Cell lysates were obtained from mouse T cells stimulated with anti-CD3 and anti-CD28 in the presence of SLP76pTYR, or vehicle alone. […] Intracellular IFN-γ and TNF-α expression by CD8^+ and CD4+ T cells was determined by flow cytometry. […]
# SLP76: ITK signaling = assay: Western blot of signaling proteins in human T cells from PBMC stimulated with anti-CD3 (OKT3); assay type: cell-based; settings: vs vehicle alone
# Experimental: Western blotting: For protein analysis, T cells were either nonstimulated, or stimulated with anti-CD3 and anti-CD28 for 24 hours overnight, and were lysed with freshly prepared lysis buffer (RIPA Buffer (Fisher Scientific cat #PI89900)+cOmplete Protease Inhibitor Cocktail (Sigma-Aldrich; cat #11697498001)) and centrifuged for 10 minutes at 14000 rpm at 4° C. Protein aliquots of 70 μg of protein were loaded on a 12-18% denaturing polyacrylamide gel and transferred to nitrocellulose membranes for immunoblot analysis using antibodies specific to proteins of interest.
# Human Samples: According to our IRB protocol (1140566-4), blood samples were obtained by vein puncture, and T cells were isolated from peripheral blood mononuclear cells (PBMC) of regular healthy donors. T cells were isolated from patient and healthy donor samples by Ficoll-Hypaque density centrifugation. The final product was resuspended at 3×10^6 cells/ml in media and stimulated with OKT-3/anti-CD3 ([…]; Ortho Bio-Tech) and anti-human CD28 ([…]; Biolegend; cat #302902) presence of […] of protamine sulfate and 1 mg/ml SLP76pTYR or vehicle for five minutes. T cell lysates were used in western blot analysis.
# ITK deficiency is known to enhance the development of regulatory T cells (Tregs) (Elmore et al., 2020, Owen et al., 2019) so the peptide inhibitor was tested to determine whether inhibition of the ITK: SLP76Y145 interactions using SLP76pTYR would induce Tregs. First, the frequency of Tregs was examined by expression of CD4^+ and FoxP3^+ (FIG. 18A). Next, total mouse T cells were stimulated with anti-CD3 (Sugie et al., 2004) in the presence of either SLP76pTYR, nonspecific peptide, or vehicle alone for 5 to 24 hours, and cells were harvested and examined for the presence of Tregs (CD4^+CD25^+FoxP3^+). […] Next, the effects of SLP76pTYR peptide on human PBMC samples from healthy human patients was investigated. T cells from these patients were stimulated with anti-CD3 (OKT3) (Karimi et al., 2005) for 5 minutes in the presence of SLP76pTYR or vehicle alone. […] No differences in stimulated or unstimulated total human AKT (FIG. 18E and FIG. 28H) was observed, providing a showing that the SLP76pTYR peptide has an impact on signaling pathways downstream of SLP76 in both mouse and human T cells. […] Next, the ability of SLP76pTYR peptide to affect the production of proinflammatory cytokines in human PBMCs was investigated. T cells from healthy human were stimulated with anti-CD3 (OKT3) and anti-CD28 in the presence of SLP76pTYR or vehicle alone, along with Brefeldin A. T cells incubated with SLP76pTYR or vehicle alone were also examined in the presence of PMA+lonomycin and Brefeldin A for 6 hours.
# More specifically, FIGS. 18A-18F depict Novel peptide SLP76pTYR specifically targets SLP76: ITK signaling and enhances Treg cell development. (FIG. 18A) Murine CD4^+ T cells were examine for total CD4+ and FOXP3 expression prior to treatment with SLP76pTYR. n=3, and one representative experiment is shown. (FIG. 18B) Total T cells stimulated in the presence of SLP76pTYR, nonspecific peptide, or vehicle alone were examined for total CD4 cells that are FoxP3^+. n=3, and one representative experiment is shown. (FIG. 18C) Quantification of three experiments as in (A) (FIG. 18D) Cell lysates were obtained from mouse T cells stimulated with anti-CD3 and anti-CD28 in the presence of SLP76pTYR, or vehicle alone. […]
substance,measurement,setting,value
FITC Dye ^132NEEEEAPVEDDADpYEPPPSNDEEA^155-TAT ({FITC}-NEEEEAPVEDDAD[pY]EPPPSNDEEAGRKKRRQRRRPQ) [SLP76pTYR],IFN-γ production,human T cells,significantly reduced IFN-γ and TNF-α production
same,TNF-α production,human T cells,significantly reduced IFN-γ and TNF-α production
same,"phosphorylation of ERK, stimulated",SLP76: ITK signaling; anti-CD3 (OKT3) for 5 minutes,reduced phosphorylation of PLCγ1 and ERK
same,"phosphorylation of PLCγ1, stimulated",SLP76: ITK signaling; anti-CD3 (OKT3) for 5 minutes,reduced phosphorylation of PLCγ1 and ERK
same,non-stimulated phospho ERK,SLP76: ITK signaling; non-stimulated T cells,No differences in non-stimulated phospho PLCγ1 and ERK were observed
same,non-stimulated phospho PLCγ1,SLP76: ITK signaling; non-stimulated T cells,No differences in non-stimulated phospho PLCγ1 and ERK were observed
same,total AKT and stimulated or unstimulated phospho AKT,SLP76: ITK signaling,No differences in total AKT or either stimulated or unstimulated phospho AKT was observed
